Activity calls are given as the source filed them. The calls are words filed in the database; no cut-off is given here.
Legend:
[1] = target: Protein arginine N-methyltransferase 1 (Homo sapiens) (UniProt Q99873); assay: Inhibition of human PRMT1 at 40 uM by TRF assay; parameters: scale not given: the % may be the effect or the level left
[2] = target: RmtA (Emericella nidulans) (UniProt Q5VLE3); assay: Inhibition of Aspergillus nidulans RmtA at 40 uM by TRF assay; parameters: scale not given: the % may be the effect or the level left
RmtA = RmtA (Emericella nidulans, UniProt Q5VLE3); assay: Inhibition of Aspergillus nidulans RmtA by TRF assay
[3] = target: T1, Histone-lysine N-methyltransferase SETD7 (Homo sapiens) (UniProt Q8WTS6); assay: Inhibition of lysine methyltransferase SET7/9 at 50 uM
T1 sequence (whole entry): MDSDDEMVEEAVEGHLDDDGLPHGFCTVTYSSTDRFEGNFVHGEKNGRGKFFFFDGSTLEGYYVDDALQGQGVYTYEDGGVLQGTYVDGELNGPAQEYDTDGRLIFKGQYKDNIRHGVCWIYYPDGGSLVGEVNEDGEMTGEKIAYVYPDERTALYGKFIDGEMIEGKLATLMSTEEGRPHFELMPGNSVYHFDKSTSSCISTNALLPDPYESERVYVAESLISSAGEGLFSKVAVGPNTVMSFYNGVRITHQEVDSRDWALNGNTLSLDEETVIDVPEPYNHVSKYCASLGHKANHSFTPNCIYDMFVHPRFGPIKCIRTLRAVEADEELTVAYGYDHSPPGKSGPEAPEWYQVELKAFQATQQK

Protein arginine N-methyltransferase 1 (Homo sapiens), sequence (Q99873 whole entry, looked up): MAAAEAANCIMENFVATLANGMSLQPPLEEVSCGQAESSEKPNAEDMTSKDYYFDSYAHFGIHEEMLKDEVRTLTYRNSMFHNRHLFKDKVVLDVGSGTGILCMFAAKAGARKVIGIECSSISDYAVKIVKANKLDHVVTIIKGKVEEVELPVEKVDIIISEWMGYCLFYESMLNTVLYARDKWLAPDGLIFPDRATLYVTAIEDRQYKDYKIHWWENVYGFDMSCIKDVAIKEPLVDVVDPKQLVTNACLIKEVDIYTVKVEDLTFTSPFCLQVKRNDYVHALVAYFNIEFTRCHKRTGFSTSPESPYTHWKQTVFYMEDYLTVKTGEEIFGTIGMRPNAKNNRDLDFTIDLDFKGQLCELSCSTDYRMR
RmtA (Emericella nidulans), sequence (Q5VLE3 as listed by the source): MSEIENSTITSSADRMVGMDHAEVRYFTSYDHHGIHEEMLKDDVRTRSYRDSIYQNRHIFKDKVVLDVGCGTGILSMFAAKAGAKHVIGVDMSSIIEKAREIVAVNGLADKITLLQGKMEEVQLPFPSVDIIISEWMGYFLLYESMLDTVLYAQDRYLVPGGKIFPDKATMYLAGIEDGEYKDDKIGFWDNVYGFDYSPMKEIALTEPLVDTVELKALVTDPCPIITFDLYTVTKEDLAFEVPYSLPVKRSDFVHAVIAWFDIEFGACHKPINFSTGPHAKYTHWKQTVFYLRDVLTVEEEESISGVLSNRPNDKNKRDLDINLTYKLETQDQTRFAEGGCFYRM
RmtA, sequence (Q5VLE3 whole entry): as the sequence (Q5VLE3 as listed by the source) above

Row | Compound | Activity [1] | Activity [2] | IC50 (RmtA) | Activity [3]
1 | CC(SC1c2ccccc2Sc2ccccc21)C(=O)N1CCCC1 (stereo not given) | < 20% | < 20% | – | –
2 | CC(S)C(=O)NCCCN (stereo not given) | < 20% | – | 46.8 µM | –
3 | O=C(CSC1c2ccccc2Oc2ccccc21)N1CCCCC1 | < 20% | < 20% | – | –
4 | CC(SC1c2ccccc2Oc2ccccc21)C(=O)NCCOCCOCCNC(=O)C(C)SC1c2ccccc2Oc2ccccc21 (stereo not given) | < 20% | < 20% | – | –
5 | CC(SC1c2ccccc2Oc2ccccc21)C(=O)NCCNC(=O)C(C)SC1c2ccccc2Oc2ccccc21 (stereo not given) | – | – | 46.2 µM | inactive

Reference: ChEMBL document CHEMBL1145428, “A novel arginine methyltransferase inhibitor with cellular activity” (Bioorg Med Chem Lett, 2007)
